The text below walks through data of ChEMBL document CHEMBL1201862, “PubChem BioAssay data set” (2004).

As usually defined, the AC50 is the concentration at which the activity in the assay is half-maximal. For orientation: EC50 means the concentration giving half of the maximal effect. Usually IC50 stands for the point on the concentration scale where inhibition reaches its midpoint.

Active and inactive are the calls of the source. For most assays here, no stated cut-off is given here; in the data, actives have a measured EC50 and inactives only a lower limit. A value given as a limit tells only on which side of the number the result lay.

In one assay the test system is INS1. Kind of assay: beta cell apoptosis inhibitors, cytokine rescue, dose response, luminescence, retest (AID 449756).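 Further: cell death triggered by IL-1 beta plus TNF-alpha plus IFN-gamma mixture; protective hits raise ATP signal compared with cytokine alone wells.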 It is filed as functional, cell-based. Conditions: Rattus norvegicus.
Assay [1] in a line: inhibitors of firefly luciferase expression or activity, dose response, H4 neuroglioma cells, luminescence (AID 1990). It is filed as functional, cell-based.
Assay [2] concerns BJ. Nature of the assay: cytotoxicity toward BJ-TERT-LT-ST fibroblasts, dose response, cell-based, RAS-independent, luminescence (AID 1935).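 Further: BJ fibroblasts immortalized with TERT plus LT and ST oncogenes.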 Type of assay: functional. The note with it: Homo sapiens.
Assay [3] is described as follows: NIH-3T3 fibroblast cytotoxicity, dose response, cytotoxicity control, cell-based, fluorescence, Alamar Blue, secondary assay (AID 2327).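 Further: NIH-3T3 mouse fibroblasts cultured with fluconazole at 8 µg/mL.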 It is filed as functional.
A short description of assay [4]: inhibitors of SNCA 5'UTR-driven reporter translation, confirmation, H4 neuroglioma cells, luminescence (AID 1988). Type of assay: functional, cell-based.
The subject of assay [5] is BJ. Kind of assay: cytotoxicity toward BJ-TERT fibroblasts, dose response, cell-based, RAS-independent, luminescence (AID 1933). Type of assay: functional. Conditions: Homo sapiens.
Assay [6] can be described thus: cytotoxicity toward DRD oncogenic fibroblasts, dose response, cell-based, non-viral oncogenic, luminescence (AID 1934). It is filed as functional. Conditions: Homo sapiens.
The subject of assay [7] is BJ. Nature of the assay: cells. It is filed as functional, cell-based. Conditions: Homo sapiens.
Assay [8] is described as follows: C. albicans growth with fluconazole, confirmation, fluorescence, retest (AID 2467). It is filed as functional, cell-based.
Assay [9] can be described thus: Luminescence Cell-Based Dose Response HTS to Identify Inhibitors of 5'UTR Stem-Loop Driven Prion Protein mRNA Translation in H4 Neuroglioblastoma Cells. [Related pubchem assays: 1827 (Project Summary), 1813 (Primary HTS)]. It is filed as functional.
The target of a further assay is T1, Aminopeptidase N (Plasmodium falciparum FcB1/Columbia, UniProt O96935).
T1 sequence (O96935 whole entry): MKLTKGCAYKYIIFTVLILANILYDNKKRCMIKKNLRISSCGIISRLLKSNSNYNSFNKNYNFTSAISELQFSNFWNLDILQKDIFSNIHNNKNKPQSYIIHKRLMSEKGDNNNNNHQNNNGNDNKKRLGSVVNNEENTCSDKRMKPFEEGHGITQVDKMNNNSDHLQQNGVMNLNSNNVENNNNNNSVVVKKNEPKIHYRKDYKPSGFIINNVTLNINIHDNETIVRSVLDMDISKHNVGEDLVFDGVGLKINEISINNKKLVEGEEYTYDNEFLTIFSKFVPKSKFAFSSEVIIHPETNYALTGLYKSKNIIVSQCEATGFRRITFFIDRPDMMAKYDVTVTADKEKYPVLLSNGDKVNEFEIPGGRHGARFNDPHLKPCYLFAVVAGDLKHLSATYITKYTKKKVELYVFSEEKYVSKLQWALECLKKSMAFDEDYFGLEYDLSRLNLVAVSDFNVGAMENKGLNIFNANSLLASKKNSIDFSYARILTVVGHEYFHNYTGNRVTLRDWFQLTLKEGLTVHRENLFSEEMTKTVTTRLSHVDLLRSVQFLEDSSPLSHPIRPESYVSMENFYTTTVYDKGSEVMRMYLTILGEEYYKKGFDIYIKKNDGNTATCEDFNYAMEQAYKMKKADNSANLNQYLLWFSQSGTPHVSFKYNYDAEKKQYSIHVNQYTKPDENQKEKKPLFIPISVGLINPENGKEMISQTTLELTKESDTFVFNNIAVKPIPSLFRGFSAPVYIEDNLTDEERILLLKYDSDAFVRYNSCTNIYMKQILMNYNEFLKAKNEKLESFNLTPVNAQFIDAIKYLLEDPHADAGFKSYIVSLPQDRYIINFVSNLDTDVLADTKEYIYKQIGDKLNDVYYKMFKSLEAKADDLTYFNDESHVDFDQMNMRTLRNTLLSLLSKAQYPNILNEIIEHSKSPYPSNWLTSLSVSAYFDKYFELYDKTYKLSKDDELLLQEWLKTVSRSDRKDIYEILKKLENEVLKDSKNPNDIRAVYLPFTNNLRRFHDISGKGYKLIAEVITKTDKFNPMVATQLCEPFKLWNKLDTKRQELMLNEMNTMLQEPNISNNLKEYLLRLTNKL
Nature of the assay: P. falciparum M1AAP inhibitors, biochemical, fluorogenic H-Leu-NHMec substrate, 1536-well (AID 1445). On the set-up: species or system Plasmodium falciparum 3D7, 3D7.

The target of a further assay is Estrogen receptor beta (Homo sapiens, UniProt Q92731).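 Further: recombinant ER-beta bound to coactivator SRC1 peptide in presence of estradiol agonist; inhibitors block coactivator peptide binding and lower the FRET signal.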
Assay [10] has as its target T2, Replicative DNA helicase DnaB (Mycobacterium tuberculosis, UniProt P9WMR3).
T2 sequence (P9WMR3 whole entry): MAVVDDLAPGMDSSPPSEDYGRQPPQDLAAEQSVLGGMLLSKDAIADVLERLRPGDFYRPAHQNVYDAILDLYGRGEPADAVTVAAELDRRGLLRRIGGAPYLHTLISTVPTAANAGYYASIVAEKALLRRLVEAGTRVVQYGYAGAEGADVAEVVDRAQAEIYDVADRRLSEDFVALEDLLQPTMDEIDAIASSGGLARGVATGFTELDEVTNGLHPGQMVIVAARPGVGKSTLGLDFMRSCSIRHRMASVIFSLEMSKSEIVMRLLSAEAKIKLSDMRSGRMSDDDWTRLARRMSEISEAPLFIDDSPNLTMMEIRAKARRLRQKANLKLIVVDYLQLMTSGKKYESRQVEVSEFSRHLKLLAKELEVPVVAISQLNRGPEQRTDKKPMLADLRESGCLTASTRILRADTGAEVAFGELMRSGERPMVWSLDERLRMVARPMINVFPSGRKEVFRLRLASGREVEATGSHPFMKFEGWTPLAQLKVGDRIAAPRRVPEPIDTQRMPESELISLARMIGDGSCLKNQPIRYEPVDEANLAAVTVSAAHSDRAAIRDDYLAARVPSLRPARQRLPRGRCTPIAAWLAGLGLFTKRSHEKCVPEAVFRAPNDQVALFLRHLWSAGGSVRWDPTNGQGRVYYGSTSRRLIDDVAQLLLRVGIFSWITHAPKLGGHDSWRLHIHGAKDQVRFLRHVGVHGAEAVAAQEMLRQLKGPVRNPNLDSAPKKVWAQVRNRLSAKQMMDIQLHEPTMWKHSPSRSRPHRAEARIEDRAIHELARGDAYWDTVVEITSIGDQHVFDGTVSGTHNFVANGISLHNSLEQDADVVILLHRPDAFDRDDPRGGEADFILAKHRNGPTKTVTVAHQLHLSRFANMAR
Nature of the assay: DnaB intein splicing inhibitors, dose response, biochemical, cell-free fluorescence (AID 449749). It is filed as functional.

The target in the next assay is T3, Protein RecA (Mycobacterium tuberculosis, UniProt P9WHJ3).
T3 sequence (P9WHJ3 whole entry): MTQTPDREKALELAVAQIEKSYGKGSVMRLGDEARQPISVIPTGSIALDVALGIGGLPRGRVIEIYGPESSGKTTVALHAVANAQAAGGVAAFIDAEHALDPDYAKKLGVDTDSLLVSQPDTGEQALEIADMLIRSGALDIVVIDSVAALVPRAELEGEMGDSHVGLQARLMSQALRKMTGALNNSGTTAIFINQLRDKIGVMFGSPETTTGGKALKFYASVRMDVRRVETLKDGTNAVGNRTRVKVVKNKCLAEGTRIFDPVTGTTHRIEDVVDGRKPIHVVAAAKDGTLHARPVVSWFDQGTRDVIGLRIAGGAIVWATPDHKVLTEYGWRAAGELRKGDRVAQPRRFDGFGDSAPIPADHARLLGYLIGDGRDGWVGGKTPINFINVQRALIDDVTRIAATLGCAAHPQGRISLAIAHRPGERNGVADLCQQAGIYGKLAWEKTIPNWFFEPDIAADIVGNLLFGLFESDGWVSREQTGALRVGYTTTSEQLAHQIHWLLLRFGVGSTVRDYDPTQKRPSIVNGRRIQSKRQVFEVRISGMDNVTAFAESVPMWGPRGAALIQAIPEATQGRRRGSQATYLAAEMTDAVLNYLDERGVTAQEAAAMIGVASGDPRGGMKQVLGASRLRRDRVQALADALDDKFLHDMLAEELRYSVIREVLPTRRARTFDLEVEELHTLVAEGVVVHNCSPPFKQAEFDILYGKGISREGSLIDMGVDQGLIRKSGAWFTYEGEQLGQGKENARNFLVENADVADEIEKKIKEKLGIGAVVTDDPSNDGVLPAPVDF
Nature of the assay: Fluorescence Cell-Free Homogeneous Dose Retest to Identify Inhibitors of RecA-Intein Splicing Activity. [Related pubchem assays (depositor defined):AID2097, AID2223, AID489010, AID492950]. Type of assay: functional.

The target of assay [11] is Glyceraldehyde-3-phosphate dehydrogenase (Homo sapiens, UniProt P04406).
A short description of assay [12]: LGR2 antagonists, dose response, cell-based, HEK293, CRE-luciferase reporter, cherry pick, set 2 (AID 743343).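 Further: transfected cells were stimulated with diluted bursicon conditioned medium after compound addition.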 Type of assay: functional.
Assay [13] in a line: MC4R antagonists, dose response, counter-screen for LGR2 antagonist project, cell-based, plate reader, cherry pick (AID 743444).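 Further: transfected HEK 293 cells stimulated with alpha-MSH peptide; potency of inhibitors of the alpha-MSH evoked signal.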 Type of assay: functional. In general terms: The purpose of a counterscreen is to sort out artefacts and off-target activity.
Another assay deals with HEK293. Nature of the assay: inhibitors of LMP1-driven NF-kB reporter, dose response, cell-based, HEK293, luciferase, cherry-pick (AID 588343). It is filed as functional. Conditions: Homo sapiens.

Chain of Estrogen receptor beta (Q92731 whole entry): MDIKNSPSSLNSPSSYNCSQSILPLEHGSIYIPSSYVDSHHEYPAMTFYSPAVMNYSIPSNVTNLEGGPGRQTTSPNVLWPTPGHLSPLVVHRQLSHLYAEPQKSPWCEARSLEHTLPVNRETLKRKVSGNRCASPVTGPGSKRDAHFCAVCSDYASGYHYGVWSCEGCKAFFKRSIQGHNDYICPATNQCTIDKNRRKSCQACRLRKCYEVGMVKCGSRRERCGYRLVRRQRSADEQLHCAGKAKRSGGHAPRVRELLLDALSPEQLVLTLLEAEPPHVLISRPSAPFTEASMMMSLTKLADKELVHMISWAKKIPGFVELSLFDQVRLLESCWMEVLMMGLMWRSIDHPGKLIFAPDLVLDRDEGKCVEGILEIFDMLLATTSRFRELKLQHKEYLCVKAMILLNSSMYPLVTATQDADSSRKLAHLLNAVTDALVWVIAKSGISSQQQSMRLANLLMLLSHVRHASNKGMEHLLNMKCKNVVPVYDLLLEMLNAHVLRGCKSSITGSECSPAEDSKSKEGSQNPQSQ
Chain of Glyceraldehyde-3-phosphate dehydrogenase (P04406 whole entry): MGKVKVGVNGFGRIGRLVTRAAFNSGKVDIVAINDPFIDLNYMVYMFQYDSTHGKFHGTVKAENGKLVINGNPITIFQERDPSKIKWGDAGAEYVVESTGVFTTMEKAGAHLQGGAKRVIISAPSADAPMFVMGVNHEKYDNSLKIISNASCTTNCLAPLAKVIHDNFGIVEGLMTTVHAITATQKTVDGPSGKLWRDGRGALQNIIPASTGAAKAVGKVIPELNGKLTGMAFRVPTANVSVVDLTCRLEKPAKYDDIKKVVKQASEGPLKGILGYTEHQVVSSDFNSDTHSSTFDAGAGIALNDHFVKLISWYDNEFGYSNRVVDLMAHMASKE

On to `COc1ccc(-[n+]2c(-c3ccccc3)cc(-c3ccccc3)cc2-c2ccccc2)cc1.[O-][Cl+3]([O-])([O-])[O-]`, for which the AC50 in the assay with INS1 was 1.33 µM (active). Besides, the EC50 in assay [1] is 11 µM (active); in the assay on BJ [2], > 150 µM (inconclusive); in assay [3], 40.7 µM (active); in assay [4], 17.9 µM (active); in the assay with BJ [5] it was 11.7 µM (inconclusive); in assay [6], 14.1 µM (active). The results for the concentration giving a half-maximal response (EC50) (in the assay on BJ [7]; in assay [8]; in assay [9]) were 14.1 µM (active), 0.046 µM (active) and > 120 µM (not active), respectively.
With `CC(=O)NC(=S)NNC(=O)COc1ccc(Br)cc1`, the IC50 on Aminopeptidase N is 2.57 µM (active).
Regarding `COc1ccc(Cn2nnnc2C(c2ccccc2OC)N2CCC(C(N)=O)CC2)cc1` (centres undefined), the IC50 on Estrogen receptor beta is listed as > 50 µM (not active).
Turning to `O=C(NC1CCCC1)C(c1ccc(F)cc1)N(Cc1ccccc1Cl)C(=O)CCl` (centres undefined), the EC50 with BJ [2] was > 150 µM (inconclusive); with BJ [5], 5.5 µM (active); in assay [6], 8.7 µM (active); with BJ [7], 14.8 µM (active); at Protein RecA, 0.215 µM (active). Further, in assay [10], the AC50 was > 380 µM (inactive).
For the compound `N#C/C(=C\c1c(N2CCC(C(N)=O)CC2)nc2ccccn2c1=O)S(=O)(=O)c1ccccc1`, the half-inhibitory concentration (IC50) at Estrogen receptor beta is on record as > 50 µM (not active).
Regarding `O=C(O)c1cc(NS(=O)(=O)c2cccc3cccnc23)ccc1O`, the IC50 in assay [11] is given as > 100 µM (not active).
`O=C(NCc1cccs1)C1CCN(S(=O)(=O)c2ccccc2F)CC1`: on Aminopeptidase N, the IC50 is 51 µM (active).
Regarding `O=C(CN1C(=O)c2ccccc2S1(=O)=O)c1ccc(F)c(F)c1`, the values for the half-maximal activity concentration (AC50) (in [12]; in [13]; with HEK293) were 9.41 µM (active), 3.42 µM (active) and 6.76 µM (active), respectively.
